target: T1, ERR1 (also known as ERR-α or ERR-1) (Homo sapiens, UniProt P11474); assay: TR-FRET assay (disruption of co-activator peptide binding to ERR1 LBD); assay type: biochemical; conditions: 6 nM 6His-ERR1LBD, 6 nM GST-SRC-2 peptide; average of 3 independent experiments
T1 sequence (P11474 193-421 limits assumed): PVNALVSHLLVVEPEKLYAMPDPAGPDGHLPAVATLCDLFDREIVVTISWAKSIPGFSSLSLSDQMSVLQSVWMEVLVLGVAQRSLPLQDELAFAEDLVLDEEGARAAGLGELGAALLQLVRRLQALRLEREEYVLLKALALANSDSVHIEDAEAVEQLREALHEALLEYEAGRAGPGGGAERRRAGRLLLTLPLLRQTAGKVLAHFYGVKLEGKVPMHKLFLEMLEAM
How it was run: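 Homogeneous TR-FRET measuring displacement of GST-hSRC2 co-activator peptide (6 nM) from His-tagged ERR1 LBD (6 nM), detected with α-GST Eu cryptate (30 nM) and α-His-XL665 (7.5 nM). Buffer 25 mM Tris pH 8, 2.5 mM Hepes, 20 mM KCl, 1 mM DTT, 0.05 mg/mL delipidated BSA; equilibration 4-18 h at 25° C. Hyperbolic dose-response fit, mean of 3 experiments.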

Row | Compound | EC50 [µM]
1 | CN1CCO[C@H](CN2C(=O)S/C(=C\c3ccc4c(cnn4Cc4ccc(Cl)cc4C(F)(F)F)c3)C2=O)C1 [Compound 192, (5Z)-5-({1-[4-Chloro-2-(trifluoromethyl)benzyl]-1H-indazol-5-yl}methylidene)-3-{[(2S)-4-methylmorpholin-2-yl]methyl}-1,3-thiazolidine-2,4-dione] | 0.045
2 | N[C@H]1CC[C@H](CN2C(=O)S/C(=C\c3ccc4c(cnn4Cc4ccc(Cl)cc4C(F)(F)F)c3)C2=O)CC1 [Compound 284, (5Z)-3-[(trans-4-Aminocyclohexyl)methyl]-5-({1-[4-chloro-2-(trifluoromethyl)benzyl]-1H-indazol-5-yl}methylidene)-1,3-thiazolidine-2,4-dione] | 0.129
3 | CCN1CCC(N2C(=O)S/C(=C\c3ccc4c(cnn4Cc4ccc(OC)cc4C(F)(F)F)c3)C2=O)CC1 [Compound 28, (5Z)-3-(1-Ethylpiperidin-4-yl)-5-({1-[4-methoxy-2-(trifluoromethyl)benzyl]-1H-indazol-5-yl}methylidene)-1,3-thiazolidine-2,4-dione] | 0.014
4 | O=C1S/C(=C\c2ccc3c(cnn3Cc3ccc(Cl)cc3C(F)(F)F)c2)C(=O)N1C[C@@H]1CCCN2CCCC[C@H]12 [Compound 206, (5Z)-5-({1-[4-Chloro-2-(trifluoromethyl)benzyl]-1H-indazol-5-yl}methylidene)-3-[(1S,9aR)-octahydro-2H-quinolizin-1-ylmethyl]-1,3-thiazolidine-2,4-dione] | 0.097
5 | O=C1S/C(=C\c2ccc3c(cnn3Cc3ccc(Cl)cc3C(F)(F)F)c2)C(=O)N1C1(C(=O)O)CCOCC1 [Compound 227, 4-[(5Z)-5-({1-[4-Chloro-2-(trifluoromethyl)benzyl]-1H-indazol-5-yl}methylidene)-2,4-dioxo-1,3-thiazolidin-3-yl]etrahydro-2H-pyran-4-carboxylic acid] | 0.053
6 | O=C(NC1(CN2C(=O)S/C(=C\c3ccc4c(cnn4Cc4ccc(C(F)(F)F)cc4C(F)(F)F)c3)C2=O)CCOCC1)C1CC1 [Compound 311, N-(4-{[(5Z)-5-({1-[2,4-Bis(trifluoromethyl)benzyl]-1H-indazol-5-yl}methylidene)-2,4-dioxo-1,3-thiazolidin-3-yl]methyl}tetrahydro-2H-pyran-4-yl) cyclopropanecarboxamide] | 0.133
7 | CN(CCN1C(=O)S/C(=C\c2ccc3c(cnn3Cc3ccc(Cl)cc3C(F)(F)F)c2)C1=O)S(C)(=O)=O [Compound 397, N-{2-[(5Z)-5-({1-[4-Chloro-2-(trifluoromethyl)benzyl]-1H-indazol-5-yl}methylidene)-2,4-dioxo-1,3-thiazolidin-3-yl]ethyl}-N-methylmethanesulfonamide] | 0.023
8 | N[C@@H](CN1C(=O)S/C(=C\c2ccc3c(cnn3Cc3ccc(Cl)cc3C(F)(F)F)c2)C1=O)C1CCCCC1 [Compound 107, (5Z)-3-[(2R)-2-Amino-2-cyclohexylethyl]-5-({1-[4-chloro-2-(trifluoromethyl)benzyl]-1H-indazol-5-yl}methylidene)-1,3-thiazolidine-2,4-dione] | 0.264
9 | COCCN1C(=O)S/C(=C\c2ccc3c(ccn3Cc3ccc(F)cc3C(F)(F)F)c2)C1=O [Compound 251, (5Z)-5-[(1-{[4-Fluoro-2-(trifluoromethyl)phenyl]methyl}-1H-indol-5-yl)methylidene]-3-[2-(methyloxy)ethyl]-1,3-thiazolidine-2,4-dione] | 0.35
10 | O=C1S/C(=C\c2ccc3c(cnn3Cc3ccc(Cl)cc3C(F)(F)F)c2)C(=O)N1C1(C(=O)O)CC1 [Compound 89, 1-[(5Z)-5-({1-[4-Chloro-2-(trifluoromethyl)benzyl]-1H-indazol-5-yl}methylidene)-2,4-dioxo-1,3-thiazolidin-3-yl]cyclopropanecarboxylic acid] | 0.092
11 | O=C1S/C(=C\c2ccc3c(cnn3Cc3ccc(Cl)cc3C(F)(F)F)c2)C(=O)N1C1CCN(CC(F)(F)F)CC1 [Compound 150, (5Z)-5-({1-[4-Chloro-2-(trifluoromethyl)benzyl]-1H-indazol-5-yl}methylidene)-3-[1-(2,2,2-trifluoroethyl)piperidin-4-yl]-1,3-thiazolidine-2,4-dione] | 0.057
12 | O=C1S/C(=C\c2ccc3c(cnn3Cc3ccc(Cl)cc3C(F)(F)F)c2)C(=O)N1[C@@H]1CCNC[C@H]1F [Compound 381, (5Z)-5-({1-[4-Chloro-2-(trifluoromethyl)benzyl]-1H-indazol-5-yl}methylidene)-3-[(3R,4R)-3-fluoropiperidin-4-yl]-1,3-thiazolidine-2,4-dione] | 0.028
13 | CN1CC[C@@H](N2C(=O)S/C(=C\c3ccc4c(cnn4Cc4ccc(Cl)cc4C(F)(F)F)c3)C2=O)C1 [Compound 144, (5Z)-5-({1-[4-Chloro-2-(trifluoromethyl)benzyl]-1H-indazol-5-yl}methylidene)-3-[(3R)-1-methylpyrrolidin-3-yl]-1,3-thiazolidine-2,4-dione] | 0.031

Further lines, results first:

Row | EC50 [µM] | Compound
14 | 0.023 | C[C@@H](CN1C(=O)S/C(=C\c2ccc3c(cnn3Cc3ccc(Cl)cc3C(F)(F)F)c2)C1=O)NS(C)(=O)=O [Compound 157, N-{(1S)-2-[(5Z)-5-({1-[4-Chloro-2-(trifluoromethyl)benzyl]-1H-indazol-5-yl}methylidene)-2,4-dioxo-1,3-thiazolidin-3-yl]-1-methylethyl} methanesulfonamide]
15 | 0.081 | O=C1S/C(=C\c2ccc3c(cnn3Cc3ccc(C(F)(F)F)cc3C(F)(F)F)c2)C(=O)N1C[C@H]1CCCN1 [Compound 82, (5Z)-5-({1-[2,4-Bis(trifluoromethyl)benzyl]-1H-indazol-5-yl}methylidene)-3-[(2R)-pyrrolidin-2-ylmethyl]-1,3-thiazolidine-2,4-dione]
16 | 0.033 | O=C1S/C(=C\c2ccc3c(cnn3Cc3ccc(Cl)cc3C(F)(F)F)c2)C(=O)N1CC1CCNCC1 [Compound 130, (5Z)-5-({1-[4-Chloro-2-(trifluoromethyl)benzyl]-1H-indazol-5-yl}methylidene)-3-(piperidin-4-ylmethyl)-1,3-thiazolidine-2,4-dione]
17 | 0.038 | O=C1S/C(=C\c2ccc3c(cnn3Cc3ccc(Cl)cc3C(F)(F)F)c2)C(=O)N1CC(O)C1CCNCC1 (stereo not shown) [Compound 285, (5Z)-5-({1-[4-Chloro-2-(trifluoromethyl)benzyl]-1H-indazol-5-yl}methylidene)-3-(2-hydroxy-2-piperidin-4-ylethyl)-1,3-thiazolidine-2,4-dione]
18 | 0.015 | O=C1S/C(=C\c2ccc3c(cnn3Cc3ccc(Cl)cc3C(F)(F)F)c2)C(=O)N1[C@@H]1CNCC[C@@H]1F (relative stereo) [Compound 199, (5Z)-5-({1-[4-Chloro-2-(trifluoromethyl)benzyl]-1H-indazol-5-yl}methylidene)-3-(cis-4-fluoropiperidin-3-yl)-1,3-thiazolidine-2,4-dione]
19 | 0.021 | O=C(O)c1ccccc1CN1C(=O)S/C(=C\c2ccc3c(cnn3Cc3ccc(Cl)cc3C(F)(F)F)c2)C1=O [Compound 379, 2-{[(5Z)-5-({1-[4-Chloro-2-(trifluoromethyl)benzyl]-1H-indazol-5-yl}methylidene)-2,4-dioxo-1,3-thiazolidin-3-yl]methyl}benzoic acid]
20 | 0.022 | O=C1S/C(=C\c2ccc3c(cnn3Cc3ccc(Cl)cc3C(F)(F)F)c2)C(=O)N1[C@@H]1CNCC[C@H]1O (relative stereo) [Compound 279, (5Z)-5-({1-[4-Chloro-2-(trifluoromethyl)-benzyl]-1H-indazol-5-yl}methylidene)-3-[trans-4-hydroxypiperidin-3-yl]-1,3-thiazolidine-2,4-dione]
21 | 0.028 | O=C1S/C(=C\c2ccc3c(cnn3Cc3ccc(Cl)cc3C(F)(F)F)c2)C(=O)N1Cc1nc[nH]n1 [Compound 90, (5Z)-5-({1-[4-Chloro-2-(trifluoromethyl)benzyl]-1H-indazol-5-yl}methylidene)-3-(1H-1,2,4-triazol-3-ylmethyl)-1,3-thiazolidine-2,4-dione]
22 | 0.037 | NC(=O)CN1CC[C@@H](CN2C(=O)S/C(=C\c3ccc4c(cnn4Cc4ccc(Cl)cc4C(F)(F)F)c3)C2=O)C1 [Compound 299, 2-[(3R)-3-{[(5Z)-5-({1-[4-Chloro-2-(trifluoromethyl)benzyl]-1H-indazol-5-yl}methylidene)-2,4-dioxo-1,3-thiazolidin-3-yl]methyl}pyrrolidin-1-yl]acetamide]
23 | 0.088 | O=C1S/C(=C\c2ccc3c(cnn3Cc3ccc(C(F)(F)F)cc3C(F)(F)F)c2)C(=O)N1[C@@H]1CCNC[C@H]1F (relative stereo) [Compound 274, (5Z)-5-({1-[2,4-Bis(trifluoromethyl)benzyl]-1H-indazol-5-yl}methylidene)-3-(trans-3-fluoropiperidin-4-yl)-1,3-thiazolidine-2,4-dione]
24 | 0.019 | CN1CCC(N2C(=O)S/C(=C\c3ccc4c(cnn4Cc4ccc(Cl)cc4C(F)(F)F)c3)C2=O)CC1 [Compound 135, (5Z)-5-({1-[4-Chloro-2-(trifluoromethyl)benzyl]-1H-indazol-5-yl}methylidene)-3-(1-methylpiperidin-4-yl)-1,3-thiazolidine-2,4-dione]
25 | 0.096 | O=C1S/C(=C\c2ccc3c(cnn3Cc3ccc(Cl)cc3C(F)(F)F)c2)C(=O)N1C[C@@H]1C[C@@H](O)CN1 [Compound 182, (5Z)-5-({1-[4-Chloro-2-(trifluoromethyl)benzyl]-1H-indazol-5-yl}methylidene)-3-{[(2S,4R)-4-hydroxypyrrolidin-2-yl]methyl}-1,3-thiazolidine-2,4-dione]

— US8796256B2 (Janssen Pharmaceutica NV, priority 2010, dated 2014)
